From the NIST ThermoML archive (doi:10.1016/j.jct.2015.05.001)
Values joined by “and” are separate entries in the source; they are usually repeats but may differ in a detail not shown here. Equal entries are not always repeated.

Experiments:
[1] = Molar enthalpy of transition or fusion; settings: Crystal; DSC
[2] = for Triple point temperature: DTA

Brc1ccc2c(c1)Cc1cc(Br)ccc1-2 [2,7-dibromofluorene]
Settings	Molar enthalpy of transition or fusion [kcal/mol]
[1]	5.43

[2], Crystal
Settings	vapor or sublimation pressure
361.15 K, Calculated from knudsen effusion weight loss	9.5e-05 kPa and 9.7e-05 kPa and 9.6e-05 kPa
363.14 K, Calculated from knudsen effusion weight loss	0.000119 kPa and 0.000118 kPa
365.11 K, Calculated from knudsen effusion weight loss	0.000147 kPa and 0.000148 kPa and 0.000144 kPa
367.16 K, Calculated from knudsen effusion weight loss	0.000177 kPa and 0.000179 kPa
369.11 K, Calculated from knudsen effusion weight loss	0.000218 kPa and 0.000214 kPa and 0.000215 kPa
371.1 K, Calculated from knudsen effusion weight loss	0.000267 kPa and 0.000261 kPa
373.15 K, Calculated from knudsen effusion weight loss	0.000318 kPa and 0.000315 kPa and 0.000319 kPa
375.12 K, Calculated from knudsen effusion weight loss	0.000392 kPa and 0.000388 kPa and 0.000382 kPa
377.12 K, Calculated from knudsen effusion weight loss	0.000472 kPa and 0.000478 kPa and 0.000463 kPa
379.15 K, Calculated from knudsen effusion weight loss	0.000556 kPa and 0.00056 kPa and 0.000563 kPa
381.12 K, Calculated from knudsen effusion weight loss	0.000678 kPa and 0.000687 kPa and 0.000674 kPa
382.23 K, Closed cell (Static) method	0.000732 kPa
383.12 K, Calculated from knudsen effusion weight loss	0.000809 kPa and 0.000827 kPa and 0.000832 kPa
384.26 K, Closed cell (Static) method	0.000874 kPa
386.08 K, Closed cell (Static) method	0.001029 kPa
388.21 K, Closed cell (Static) method	0.001254 kPa
390.11 K, Closed cell (Static) method	0.001472 kPa
392.14 K, Closed cell (Static) method	0.001751 kPa
394.16 K, Closed cell (Static) method	0.002104 kPa
396.08 K, Closed cell (Static) method	0.002489 kPa
398.07 K, Closed cell (Static) method	0.002922 kPa

Settings	Triple point temperature [K]
[2], Crystal	438.79

Brc1ccc2c(c1)Cc1ccccc1-2 [2-bromofluorene]
Settings	Molar enthalpy of transition or fusion [kcal/mol]
[1]	4.07

[2]
Settings	vapor or sublimation pressure
327.17 K, Crystal, Calculated from knudsen effusion weight loss	0.000118 kPa and 0.000119 kPa
329.13 K, Crystal, Calculated from knudsen effusion weight loss	0.00015 kPa and 0.000148 kPa
331.09 K, Crystal, Calculated from knudsen effusion weight loss	0.000186 kPa and 0.000183 kPa
333.16 K, Crystal, Calculated from knudsen effusion weight loss	0.000223 kPa and 0.000225 kPa and 0.000229 kPa
335.14 K, Crystal, Calculated from knudsen effusion weight loss	0.00028 kPa and 0.000275 kPa and 0.000279 kPa
337.11 K, Crystal, Calculated from knudsen effusion weight loss	0.000347 kPa and 0.000346 kPa and 0.000343 kPa
339.16 K, Crystal, Calculated from knudsen effusion weight loss	0.000417 kPa and 0.000416 kPa and 0.000425 kPa
341.14 K, Crystal, Calculated from knudsen effusion weight loss	0.000515 kPa and 0.000501 kPa
343.1 K, Crystal, Calculated from knudsen effusion weight loss	0.000627 kPa and 0.000626 kPa and 0.000634 kPa
345.16 K, Crystal, Calculated from knudsen effusion weight loss	0.000749 kPa and 0.000747 kPa and 0.000758 kPa
347.09 K, Crystal, Calculated from knudsen effusion weight loss	0.000928 kPa and 0.000929 kPa and 0.000909 kPa
349.09 K, Crystal, Calculated from knudsen effusion weight loss	0.00112 kPa and 0.001125 kPa and 0.001127 kPa
350.8 K, Crystal, Closed cell (Static) method	0.001323 kPa
352.79 K, Crystal, Closed cell (Static) method	0.001593 kPa
354.74 K, Crystal, Closed cell (Static) method	0.001921 kPa
356.73 K, Crystal, Closed cell (Static) method	0.002274 kPa
358.7 K, Crystal, Closed cell (Static) method	0.002726 kPa
360.67 K, Crystal, Closed cell (Static) method	0.003206 kPa
362.65 K, Crystal, Closed cell (Static) method	0.003848 kPa
364.63 K, Crystal, Closed cell (Static) method	0.00452 kPa
366.6 K, Crystal, Closed cell (Static) method	0.005367 kPa
368.56 K, Crystal, Closed cell (Static) method	0.006271 kPa
370.56 K, Crystal, Closed cell (Static) method	0.007492 kPa
372.53 K, Crystal, Closed cell (Static) method	0.008716 kPa
374.47 K, Metastable liquid, Closed cell (Static) method	0.012 kPa
374.5 K, Crystal, Closed cell (Static) method	0.0103 kPa
376.47 K, Crystal, Closed cell (Static) method	0.01202 kPa
376.47 K, Metastable liquid, Closed cell (Static) method	0.01362 kPa
378.44 K, Crystal, Closed cell (Static) method	0.01403 kPa
378.44 K, Metastable liquid, Closed cell (Static) method	0.01541 kPa
380.4 K, Crystal, Closed cell (Static) method	0.01634 kPa
380.4 K, Metastable liquid, Closed cell (Static) method	0.01749 kPa
382.39 K, Metastable liquid, Closed cell (Static) method	0.01992 kPa
384.36 K, Metastable liquid, Closed cell (Static) method	0.02244 kPa
386.34 K, Metastable liquid, Closed cell (Static) method	0.02529 kPa
388.31 K, Metastable liquid, Closed cell (Static) method	0.02854 kPa
390.28 K, Closed cell (Static) method, Liquid	0.03201 kPa
392.25 K, Closed cell (Static) method, Liquid	0.03602 kPa
394.21 K, Closed cell (Static) method, Liquid	0.04022 kPa
396.18 K, Closed cell (Static) method, Liquid	0.04506 kPa
398.13 K, Closed cell (Static) method, Liquid	0.05046 kPa
400.11 K, Closed cell (Static) method, Liquid	0.05625 kPa
402.06 K, Closed cell (Static) method, Liquid	0.0628 kPa
404.05 K, Closed cell (Static) method, Liquid	0.06988 kPa
405.99 K, Closed cell (Static) method, Liquid	0.0774 kPa
407.97 K, Closed cell (Static) method, Liquid	0.08499 kPa
409.95 K, Closed cell (Static) method, Liquid	0.0938 kPa
411.9 K, Closed cell (Static) method, Liquid	0.1045 kPa
413.88 K, Closed cell (Static) method, Liquid	0.1164 kPa
415.84 K, Closed cell (Static) method, Liquid	0.1264 kPa
417.81 K, Closed cell (Static) method, Liquid	0.1398 kPa
419.77 K, Closed cell (Static) method, Liquid	0.1534 kPa

Settings	Triple point temperature [K]
[2], Crystal	387.39
